Reference: US12077503B2, “Substituted cyclic amides and their use as herbicides” (FMC CORPORATION, priority 2015, dated 2024)

What was measured:
Test in all cases: Test C preemergence
Assay type in all cases: in vivo
Details in all cases: scale 0 to 100, 0 no effect, 100 complete control
[1] = system: lambsquarters (Chenopodium album)
Outline: (§1)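 Herbicidal effect, applied preemergence to sown seeds or postemergence to 1- to 4-leaf plants, was scored visually 13 to 15 d after application, 0 to 100 versus controls.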

[2] = system: ryegrass, Italian (Italian ryegrass, Lolium multiflorum)
Outline: as §1

[3] = system: wheat (winter wheat, Triticum aestivum)
Outline: as §1

[4] = system: ragweed (common ragweed, Ambrosia elatior)
Outline: as §1

[5] = system: oilseed rape (Brassica napus)
Outline: as §1

corn (Zea mays) = system: corn (Zea mays)
Outline: as §1

[6] = system: crabgrass, large (large crabgrass, Digitaria sanguinalis)
Outline: as §1

[7] = system: velvetleaf (Abutilon theophrasti)
Outline: as §1

[8] = system: barnyardgrass (Echinochloa crus-galli)
Outline: as §1

[9] = system: nutsedge, yellow (yellow nutsedge, Cyperus esculentus)
Outline: as §1

[10] = system: morningglory (Ipomoea coccinea)
Outline: as §1

[11] = system: Galium (catchweed bedstraw, Galium aparine)
Outline: as §1

[12] = system: pigweed (Amaranthus retroflexus)
Outline: as §1

[13] = system: waterhemp (common waterhemp, Amaranthus rudis)
Outline: as §1

soybean (Glycine max) = system: soybean (Glycine max)
Outline: as §1

[14] = system: johnsongrass (Sorghum halepense)
Outline: as §1

Cc1ccc(C2CN(C)C(=O)C2C(=O)Nc2cccc(F)c2F)cc1F (centres unmarked) [Compound 464]
Plant response rating, Lambsquarters ([1]; 31 g ai/ha): 45 | Plant response rating, Lambsquarters ([1]; 62 g ai/ha): 80 | Plant response rating, Lambsquarters ([1]; 125 g ai/ha): 80 | Plant response rating, Lambsquarters ([1]; 250 g ai/ha): 90 | Plant response rating, Ryegrass, Italian ([2]; 62 g ai/ha): 55 | Plant response rating, Ryegrass, Italian ([2]; 125 g ai/ha): 70 | Plant response rating, Ryegrass, Italian ([2]; 250 g ai/ha): 85 | Plant response rating, Wheat ([3]; 62 g ai/ha): 50 | Plant response rating, Wheat ([3]; 125 g ai/ha): 70 | Plant response rating, Wheat ([3]; 250 g ai/ha): 90 | Plant response rating, Ragweed ([4]; 31 g ai/ha): 70 | Plant response rating, Ragweed ([4]; 62 g ai/ha): 70 | Plant response rating, Ragweed ([4]; 125 g ai/ha): 75 | Plant response rating, Ragweed ([4]; 250 g ai/ha): 90 | Plant response rating, Oilseed Rape ([5]; 31 g ai/ha): 80 | Plant response rating, Oilseed Rape ([5]; 62 g ai/ha): 85 | Plant response rating, Oilseed Rape ([5]; 125 g ai/ha): 80 | Plant response rating, Oilseed Rape ([5]; 250 g ai/ha): 90 | Plant response rating, Corn (corn (Zea mays); 31 g ai/ha): 50 | Plant response rating, Corn (corn (Zea mays); 62 g ai/ha): 70 | Plant response rating, Corn (corn (Zea mays); 125 g ai/ha): 75 | Plant response rating, Corn (corn (Zea mays); 250 g ai/ha): 90 | Plant response rating, Crabgrass, Large ([6]; 31 g ai/ha): 95 | Plant response rating, Crabgrass, Large ([6]; 62 g ai/ha): 100 | Plant response rating, Crabgrass, Large ([6]; 125 g ai/ha): 100 | Plant response rating, Crabgrass, Large ([6]; 250 g ai/ha): 100 | Plant response rating, Velvetleaf ([7]; 62 g ai/ha): 30 | Plant response rating, Velvetleaf ([7]; 125 g ai/ha): 45 | Plant response rating, Velvetleaf ([7]; 250 g ai/ha): 60 | Plant response rating, Barnyardgrass ([8]; 31 g ai/ha): 90 | Plant response rating, Barnyardgrass ([8]; 62 g ai/ha): 95 | Plant response rating, Barnyardgrass ([8]; 125 g ai/ha): 95 | Plant response rating, Barnyardgrass ([8]; 250 g ai/ha): 98 | Plant response rating, Nutsedge, Yellow ([9]; 31 g ai/ha): 0 | Plant response rating, Nutsedge, Yellow ([9]; 62 g ai/ha): 0 | Plant response rating, Nutsedge, Yellow ([9]; 125 g ai/ha): 0 | Plant response rating, Nutsedge, Yellow ([9]; 250 g ai/ha): 0 | Plant response rating, Morningglory ([10]; 31 g ai/ha): 10 | Plant response rating, Morningglory ([10]; 62 g ai/ha): 20 | Plant response rating, Morningglory ([10]; 125 g ai/ha): 20 | Plant response rating, Morningglory ([10]; 250 g ai/ha): 40 | Plant response rating, Galium ([11]; 31 g ai/ha): 90 | Plant response rating, Galium ([11]; 62 g ai/ha): 95 | Plant response rating, Galium ([11]; 125 g ai/ha): 95 | Plant response rating, Galium ([11]; 250 g ai/ha): 95 | Plant response rating, Pigweed ([12]; 31 g ai/ha): 45 | Plant response rating, Pigweed ([12]; 62 g ai/ha): 45 | Plant response rating, Pigweed ([12]; 125 g ai/ha): 60 | Plant response rating, Pigweed ([12]; 250 g ai/ha): 70 | Plant response rating, Waterhemp ([13]; 62 g ai/ha): 75 | Plant response rating, Waterhemp ([13]; 125 g ai/ha): 80 | Plant response rating, Waterhemp ([13]; 250 g ai/ha): 95 | Plant response rating, Soybean (soybean (Glycine max); 62 g ai/ha): 0 | Plant response rating, Soybean (soybean (Glycine max); 125 g ai/ha): 0 | Plant response rating, Soybean (soybean (Glycine max); 250 g ai/ha): 0 | Plant response rating, Johnsongrass ([14]; 31 g ai/ha): 35 | Plant response rating, Johnsongrass ([14]; 62 g ai/ha): 80 | Plant response rating, Johnsongrass ([14]; 125 g ai/ha): 85 | Plant response rating, Johnsongrass ([14]; 250 g ai/ha): 95
